Literature values as cited in patent US9675603B2, “Solid pharmaceutical compositions of ppary modulator” (InteKrin Therapeutics, Inc., priority 2010, dated 2017).

## O=S(=O)(Nc1cc(Cl)c(Oc2cnc3ccccc3c2)c(Cl)c1)c1ccc(Cl)cc1Cl.O=S(=O)(O)c1ccccc1 [besylate salt of compound 101, 2,4-Dichloro-N-[3,5-dichloro-4-(quinolin-3-yloxy)-phenyl]-benzenesulfonamide benzenesulfonate salt]
Compared to other salts of compound 101, U.S. Pat. No. 7,223,761 B2
  Stability and hygroscopic properties: superior stability and hygroscopic properties
In aqueous solvents and in most organic solvents
  Solubility: sparingly soluble
